Assay: wn = mass fraction of the nth substance listed
Conditions: Liquid

NCC(=O)[O-].[Na+] [sodium glycinate] + O
mass density [kg/m3]
Conditions	298.15 K	313.15 K	323.15 K	333.15 K	343.15 K	353.15 K
w1 = 0.01	1011.96	1002	–	996.72	990.16	985.36
w1 = 0.05	1015.92	1010.56	1005.12	1000.12	993.24	987.2
w1 = 0.1	1034.52	1029.68	1022.56	1017.56	1010.76	1005.32
w1 = 0.15	1055.6	1048.32	1042.92	1036.72	1030.08	1023.64
w1 = 0.2	1083.52	1076.44	1071	1066.48	1061.2	1054.48
w1 = 0.3	1130.4	1118	1112.76	1107.48	1101.44	1094.52
